Assay results taken from patent publication US9944602B2, “Piperidinone herbicides” (E. I. DU PONT DE NEMOURS AND COMPANY, priority 2014, dated 2018).

Columns and labels:
Format in all cases: in vivo
[1] = tested on: ryegrass, Italian (Italian ryegrass, Lolium multiflorum); experiment: Test A postemergence ryegrass, Italian; conditions: 0 to 100 scale, 0 is no effect, 100 is complete control
Procedure, shortened: (§1)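 Directed soil spray at planting gives preemergence data; foliar application to one- to two-leaf plants gives postemergence data. Response is visual injury relative to untreated controls about 10 d after treatment, scored 0–100.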

[2] = tested on: sedge, umbrella (small-flower umbrella sedge, Cyperus difformis); experiment: Test B flooded paddy test sedge, umbrella; conditions: Table B, Flood
Procedure, shortened: (§2)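 Visual injury relative to controls was scored after 13 to 15 d in the greenhouse. Treatment was by adding compound straight to flood water 3 cm deep, maintained for the whole test, on plants at the 2-leaf stage.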

kochia (Kochia scoparia) [3] = experiment: Test A preemergence kochia; conditions: 0 to 100 scale, 0 no effect, 100 complete control
Procedure, shortened: as §1

[4] = tested on: ragweed (common ragweed, Ambrosia elatior); experiment: Test A preemergence ragweed; conditions: 0 to 100 scale, 0 no effect, 100 complete control
Procedure, shortened: as §1

corn (Zea mays) = experiment: Test A postemergence corn; conditions: 0 to 100 scale, 0 is no effect, 100 is complete control
Procedure, shortened: as §1

[5] = tested on: ryegrass, Italian (Italian ryegrass, Lolium multiflorum); experiment: Test A preemergence ryegrass, Italian; conditions: 0 to 100 scale, 0 no effect, 100 complete control
Procedure, shortened: as §1

rice (Oryza sativa) [6] = experiment: Test B flooded paddy test rice; conditions: Table B, Flood
Procedure, shortened: as §2

[7] = tested on: pigweed (Amaranthus retroflexus); experiment: Test A preemergence pigweed; conditions: 0 to 100 scale, 0 no effect, 100 complete control
Procedure, shortened: as §1

[8] = tested on: barnyardgrass (Echinochloa crus-galli); experiment: Test A preemergence barnyardgrass; conditions: 0 to 100 scale
Procedure, shortened: as §1

[9] = tested on: wheat (Triticum aestivum); experiment: Test A postemergence wheat; conditions: 0 to 100 scale, 0 is no effect, 100 is complete control
Procedure, shortened: as §1

[10] = tested on: sedge, umbrella (small-flower umbrella sedge, Cyperus difformis); experiment: Test C flooded paddy test sedge, umbrella; conditions: Table C, Flood, scale 0 to 100
From the text: (§3) Plant species in the flooded paddy test consisted of rice (Oryza sativa), sedge, umbrella (small-flower umbrella sedge, Cyperus difformis), ducksalad (Heteranthera limosa), and barnyardgrass (Echinochloa crus-galli) grown to the 2-leaf stage for testing. At time of treatment, test pots were flooded to 3 cm above the soil surface, treated by application of test compounds directly to the paddy water, and then maintained at that water depth for the duration of the test. Treated plants and controls were maintained in a greenhouse for 13 to 15 d, after which time all species were compared to controls and visually evaluated. Plant response ratings, summarized in Table C, are based on a scale of 0 to 100 where 0 is no effect and 100 is complete control. A dash (-) response means no test result.

[11] = tested on: pigweed (Amaranthus retroflexus); experiment: Test A postemergence pigweed; conditions: 0 to 100 scale, 0 is no effect, 100 is complete control
Procedure, shortened: as §1

[12] = tested on: foxtail, giant (giant foxtail, Setaria faberii); experiment: Test A preemergence foxtail, giant; conditions: 0 to 100 scale, 0 no effect, 100 complete control
Procedure, shortened: as §1

[13] = tested on: ducksalad (Heteranthera limosa); experiment: Test C flooded paddy test ducksalad; conditions: Table C, Flood, scale 0 to 100
From the text: as §3

[14] = tested on: ragweed (common ragweed, Ambrosia elatior); experiment: Test A postemergence ragweed; conditions: 0 to 100 scale, 0 is no effect, 100 is complete control
Procedure, shortened: as §1

[15] = tested on: barnyardgrass (Echinochloa crus-galli); experiment: Test B flooded paddy test barnyardgrass; conditions: Table B, Flood
Procedure, shortened: as §2

[16] = tested on: blackgrass (Alopecurus myosuroides); experiment: Test A postemergence blackgrass; conditions: 0 to 100 scale, 0 is no effect, 100 is complete control
Procedure, shortened: as §1

rice (Oryza sativa) [17] = experiment: Test C flooded paddy test rice; conditions: Table C, Flood, scale 0 to 100
From the text: as §3

kochia (Kochia scoparia) [18] = experiment: Test A postemergence kochia; conditions: 0 to 100 scale, 0 is no effect, 100 is complete control
Procedure, shortened: as §1

[19] = tested on: barnyardgrass (Echinochloa crus-galli); experiment: Test C flooded paddy test barnyardgrass; conditions: Table C, Flood, scale 0 to 100
From the text: as §3

[20] = tested on: ducksalad (Heteranthera limosa); experiment: Test B flooded paddy test ducksalad; conditions: Table B, Flood
Procedure, shortened: as §2

[21] = tested on: foxtail, giant (giant foxtail, Setaria faberii); experiment: Test A postemergence foxtail, giant; conditions: 0 to 100 scale, 0 is no effect, 100 is complete control
Procedure, shortened: as §1

[22] = tested on: galium (catchweed bedstraw, Galium aparine); experiment: Test A postemergence galium; conditions: 0 to 100 scale, 0 is no effect, 100 is complete control
Procedure, shortened: as §1

[23] = tested on: barnyardgrass (Echinochloa crus-galli); experiment: Test A postemergence barnyardgrass; conditions: 0 to 100 scale, 0 is no effect, 100 is complete control
Procedure, shortened: as §1

[24] = tested on: wheat (Triticum aestivum); experiment: Test A preemergence wheat; conditions: 0 to 100 scale, 0 no effect, 100 complete control
From the text: Seeds of plant species selected from barnyardgrass (Echinochloa crus-galli), kochia (Kochia scoparia), ragweed (common ragweed, Ambrosia elatior), ryegrass, Italian (Italian ryegrass, Lolium multiflorum), crabgrass, large (large crabgrass, Digitaria sanguinalis), foxtail, giant (giant foxtail, Setaria faberii), morningglory (Ipomoea spp.), pigweed (Amaranthus retroflexus), velvetleaf (Abutilon theophrasti), wheat (Triticum aestivum), and corn (Zea mays) were planted into a blend of loam soil and sand and treated preemergence with a directed soil spray using test chemicals formulated in a non-phytotoxic solvent mixture which included a surfactant.
At the same time, plants selected from these crop and weed species and also blackgrass (Alopecurus myosuroides), and galium (catchweed bedstraw, Galium aparine) were planted in pots containing the same blend of loam soil and sand and treated with postemergence applications of test chemicals formulated in the same manner. Plants ranged in height from 2 to 10 cm and were in the one- to two-leaf stage for the postemergence treatment. Treated plants and untreated controls were maintained in a greenhouse for approximately 10 d, after which time all treated plants were compared to untreated controls and visually evaluated for injury. Plant response ratings, summarized in Table A, are based on a 0 to 100 scale where 0 is no effect and 100 is complete control. A dash (-) response means no test result.

O=C1NCCC(c2cccc(C(F)(F)F)c2)C1C(=O)Nc1ccc(F)c(F)c1F (racemic) [Compound 28]
Plant response rating, Ryegrass, Italian ([1]; 125 g ai/ha): 0 | Plant response rating, Ryegrass, Italian ([1]; 500 g ai/ha): 0 | Plant response rating ([2]; 500 g ai/ha, scale 0 to 100): 0 | Kochia plant response rating (kochia (Kochia scoparia) [3]; 125 g ai/ha): 20 | Kochia plant response rating (kochia (Kochia scoparia) [3]; 500 g ai/ha): 20 | Ragweed plant response rating ([4]; 125 g ai/ha): 0 | Ragweed plant response rating ([4]; 500 g ai/ha): 0 | Plant response rating, Corn (corn (Zea mays); 125 g ai/ha): 30 | Plant response rating, Corn (corn (Zea mays); 500 g ai/ha): 60 | Ryegrass, Italian plant response rating ([5]; 125 g ai/ha): 20 | Ryegrass, Italian plant response rating ([5]; 500 g ai/ha): 40 | Plant response rating (rice (Oryza sativa) [6]; 500 g ai/ha, scale 0 to 100): 15 | Pigweed plant response rating ([7]; 125 g ai/ha): 0 | Pigweed plant response rating ([7]; 500 g ai/ha): 20 | Barnyardgrass plant response rating ([8]; 125 g ai/ha, 0 no effect, 100 complete control): 90 | Barnyardgrass plant response rating ([8]; 500 g ai/ha, 0 no effect, 100 complete control): 90 | Plant response rating, Wheat ([9]; 125 g ai/ha): 0 | Plant response rating, Wheat ([9]; 500 g ai/ha): 20 | Plant response rating ([10]; 31 g ai/ha): 0 | Plant response rating ([10]; 62 g ai/ha): 0 | Plant response rating ([10]; 125 g ai/ha): 0 | Plant response rating ([10]; 250 g ai/ha): 0 | Plant response rating, Pigweed ([11]; 125 g ai/ha): 0 | Plant response rating, Pigweed ([11]; 500 g ai/ha): 0 | Foxtail, Giant plant response rating ([12]; 125 g ai/ha): 90 | Foxtail, Giant plant response rating ([12]; 500 g ai/ha): 90 | Plant response rating ([13]; 31 g ai/ha): 45 | Plant response rating ([13]; 62 g ai/ha): 50 | Plant response rating ([13]; 125 g ai/ha): 60 | Plant response rating ([13]; 250 g ai/ha): 70 | Plant response rating, Ragweed ([14]; 125 g ai/ha): 0 | Plant response rating, Ragweed ([14]; 500 g ai/ha): 0 | Plant response rating ([15]; 500 g ai/ha, scale 0 to 100): 100 | Plant response rating, Blackgrass ([16]; 125 g ai/ha): 0 | Plant response rating, Blackgrass ([16]; 500 g ai/ha): 20 | Plant response rating (rice (Oryza sativa) [17]; 31 g ai/ha): 0 | Plant response rating (rice (Oryza sativa) [17]; 62 g ai/ha): 0 | Plant response rating (rice (Oryza sativa) [17]; 125 g ai/ha): 0 | Plant response rating (rice (Oryza sativa) [17]; 250 g ai/ha): 0 | Plant response rating, Kochia (kochia (Kochia scoparia) [18]; 125 g ai/ha): 0 | Plant response rating, Kochia (kochia (Kochia scoparia) [18]; 500 g ai/ha): 0 | Plant response rating ([19]; 31 g ai/ha): 60 | Plant response rating ([19]; 62 g ai/ha): 65 | Plant response rating ([19]; 125 g ai/ha): 70 | Plant response rating ([19]; 250 g ai/ha): 75 | Plant response rating ([20]; 500 g ai/ha, scale 0 to 100): 85 | Plant response rating, Foxtail, Giant ([21]; 125 g ai/ha): 70 | Plant response rating, Foxtail, Giant ([21]; 500 g ai/ha): 90 | Plant response rating, Galium ([22]; 125 g ai/ha): 0 | Plant response rating, Galium ([22]; 500 g ai/ha): 0 | Plant response rating, Barnyardgrass ([23]; 125 g ai/ha): 60 | Plant response rating, Barnyardgrass ([23]; 500 g ai/ha): 80

O=C1NCCC(c2cccc(C(F)(F)F)c2)C1C(=O)Nc1cccc(F)c1F (stereo not drawn) [Compound 9, N-(2,3-difluorophenyl)-2-oxo-4-[3-(trifluoromethyl)phenyl]-3-piperidinecarboxamide]
pest or weed control at 250 g/ha ([2]; Cyperus difformis, 250 g ai/ha, scale 0 to 100, read-out: Plant response rating): 0% | Corn plant response rating (crop injury, 0 = no effect, 100 = complete kill) at 125 g/ha (corn (Zea mays); Zea mays, post-emergence, 240 h, 125 g ai/ha): 40% | Corn plant response rating (crop injury, 0 = no effect, 100 = complete kill) at 500 g/ha (corn (Zea mays); Zea mays, post-emergence, 240 h, 500 g ai/ha): 80% | plant injury at 250 g/ha (rice (Oryza sativa) [6]; Oryza sativa, 250 g ai/ha, scale 0 to 100, read-out: Plant response rating): 0% | pest or weed control at 125 g/ha ([7]; Amaranthus retroflexus, pre-emergence, 240 h, 125 g ai/ha, read-out: Pigweed plant response rating): 0% | pest or weed control at 500 g/ha ([7]; Amaranthus retroflexus, pre-emergence, 240 h, 500 g ai/ha, read-out: Pigweed plant response rating): 0% | Plant response rating, Barnyardgrass ([8]; 500 g ai/ha, 0 is no effect, 100 is complete control): 90 | pest or weed control at 125 g/ha ([8]; Echinochloa crus-galli, pre-emergence, 240 h, 125 g ai/ha, 0 no effect, 100 complete control, read-out: Barnyardgrass plant response rating): 90% | plant injury at 125 g/ha ([9]; Triticum aestivum, post-emergence, 240 h, 125 g ai/ha, read-out: Plant response rating, Wheat): 20% | plant injury at 500 g/ha ([9]; Triticum aestivum, post-emergence, 240 h, 500 g ai/ha, read-out: Plant response rating, Wheat): 40% | Plant response rating ([10]; 1000 g ai/ha): 0 | pest or weed control at 125 g/ha ([11]; Amaranthus retroflexus, post-emergence, 240 h, 125 g ai/ha, read-out: Plant response rating, Pigweed): 0% | pest or weed control at 500 g/ha ([11]; Amaranthus retroflexus, post-emergence, 240 h, 500 g ai/ha, read-out: Plant response rating, Pigweed): 0% | pest or weed control at 125 g/ha ([12]; Setaria faberi, pre-emergence, 240 h, 125 g ai/ha, read-out: Foxtail, Giant plant response rating): 90% | pest or weed control at 500 g/ha ([12]; Setaria faberi, pre-emergence, 240 h, 500 g ai/ha, read-out: Foxtail, Giant plant response rating): 90% | Plant response rating ([13]; 1000 g ai/ha): 98 | pest or weed control at 250 g/ha ([15]; Echinochloa crus-galli, 250 g ai/ha, scale 0 to 100, read-out: Plant response rating): 75% | Plant response rating (rice (Oryza sativa) [17]; 1000 g ai/ha): 10 | Plant response rating ([19]; 1000 g ai/ha): 80 | pest or weed control at 250 g/ha ([20]; Heteranthera limosa, 250 g ai/ha, scale 0 to 100, read-out: Plant response rating): 90% | pest or weed control at 125 g/ha ([21]; Setaria faberi, post-emergence, 240 h, 125 g ai/ha, read-out: Plant response rating, Foxtail, Giant): 80% | pest or weed control at 500 g/ha ([21]; Setaria faberi, post-emergence, 240 h, 500 g ai/ha, read-out: Plant response rating, Foxtail, Giant): 90% | pest or weed control at 125 g/ha ([23]; Echinochloa crus-galli, post-emergence, 240 h, 125 g ai/ha, read-out: Plant response rating, Barnyardgrass): 80% | pest or weed control at 500 g/ha ([23]; Echinochloa crus-galli, post-emergence, 240 h, 500 g ai/ha, read-out: Plant response rating, Barnyardgrass): 90% | Wheat plant response rating ([24]; 125 g ai/ha): 20 | Wheat plant response rating ([24]; 500 g ai/ha): 50
